Measurements taken from US12653837B2, “Use of inhaled nitric oxide and oxygen for the treatment of pulmonary hypertension” (Bellerophon Pulse Technologies LLC, priority 2017, dated 2026).

How the values were obtained:
[1] = tested on: symptomatic subjects with PAH; assay: Oxygen desaturation (drop in SpO2 from beginning to end of six-minute walk test), Phase 2 study IK-7001-PAH-201; assay type: in vivo, human
Description: (§1) This study was a Phase 2, placebo controlled, double-blind, randomized, clinical study to determine the safety, tolerability and efficacy of pulsed iNO versus placebo as add-on therapy in symptomatic subjects with PAH (IK-7001-PAH-201; NCT01457781). The primary outcome of this study was change from baseline in pulmonary vascular resistance (PVR). Secondary outcome measure included change in 6MWD, time to first clinical worsening event (TTCW), change in WHO functional class, change in Borg Dyspnea Score (BDS) and change in patient reported outcome (PRO) scores by the SF-36 short form version 2 and the Cambridge Pulmonary Hypertension Outcome Review (CAMPHOR).
(§2) PAH subjects were administered pulsed iNO at a dose of 25 or 75 mcg/IBW kg/hr for up to 24 hours a day for up to 16 weeks, or received pulsed placebo (99.999% N2) for up to 24 hours a day for up to 16 weeks. The dose of 25 mcg/kg IBW/hr was administered from a mini-cylinder having 2,440 ppm NO and the dose of 75 mcg/kg IBW/hr was administered from a mini-cylinder having 4,880 ppm NO.
(§3) All subjects were receiving at least one approved PAH therapy and were clinically symptomatic from PAH (e.g. onset or increased dyspnea on exertion, dizziness, near-syncope, syncope, chest pain or peripheral edema).
Oxygen desaturation was measured as the drop in SpO2 level from the beginning to the end of the six-minute walk test (6MWT). Oxygen desaturation was measured at baseline and after 16 weeks of chronic treatment with iNO at a dose of 75 mcg/kg IBW/hr (iNO 75) or 25 mcg/kg IBW/hr (iNO 25) or placebo.

[2] = tested on: symptomatic subjects with PAH; assay: Exercise capacity (change in 6MWD from baseline to 16 weeks), Phase 2 study IK-7001-PAH-201; assay type: in vivo, human
Description: as §1, §2, §3
Also shown is the change in exercise capacity, measured as the change in 6MWD from baseline to 16 weeks.

## [N]=O [iNO, nitric oxide]
[1]; iNO 25 mcg/kg IBW/hr, pulsed, up to 24 h/day, baseline to 16 weeks (LOCF), PAH subjects
  Change in Oxygen Desaturation (SpO2): −0.14
[1]; iNO 75 mcg/kg IBW/hr, pulsed, up to 24 h/day, baseline to 16 weeks (LOCF), all PAH subjects
  Change in Oxygen Desaturation (SpO2): −2.19
[1]; iNO 75 mcg/kg IBW/hr, No LTOT, baseline to 16 weeks, PAH subjects
  Change in Oxygen Desaturation (SpO2): 0.40
[1]; iNO 75 mcg/kg IBW/hr, compliant >12 hrs per day, No LTOT, baseline to 16 weeks, PAH subjects
  Change in Oxygen Desaturation (SpO2): 1.33
[1]; iNO 75 mcg/kg IBW/hr, compliant >12 hrs per day, with LTOT, baseline to 16 weeks, PAH subjects
  Change in Oxygen Desaturation (SpO2): −3.36
[1]; iNO 75 mcg/kg IBW/hr, with LTOT, baseline to 16 weeks, PAH subjects
  Change in Oxygen Desaturation (SpO2): −3.00
[2]; iNO 25 mcg/kg IBW/hr, pulsed, up to 24 h/day, PAH subjects
  Change in 6MWD (meters): 4.7 meters
[2]; iNO 75 mcg/kg IBW/hr, No LTOT, PAH subjects
  Change in 6MWD (meters): −20.8 meters
[2]; iNO 75 mcg/kg IBW/hr, compliant >12 hrs per day, No LTOT, PAH subjects
  Change in 6MWD (meters): −29.7 meters
[2]; iNO 75 mcg/kg IBW/hr, compliant >12 hrs per day, with LTOT, PAH subjects
  Change in 6MWD (meters): 52.4 meters
[2]; iNO 75 mcg/kg IBW/hr, pulsed, up to 24 h/day, all PAH subjects
  Change in 6MWD (meters): 22.8 meters
[2]; iNO 75 mcg/kg IBW/hr, with LTOT, PAH subjects
  Change in 6MWD (meters): 34.9 meters
